Assay results from article PMC4957924, “Prediction and verification of novel peptide targets of protein tyrosine phosphatase 1B” (Bioorganic & Medicinal Chemistry, 2016).
Where two headings read alike, the source gives them in different places.

Columns and labels:
PTP1B [1] = molecular target: T1, PTP1B (Homo sapiens, UniProt P18031); test: in vitro EnzChek phosphate assay of PTP1B against synthesized phosphopeptides; type: biochemical; details: for kcat/Km / Km: peptide as substrate of PTP1B, value ± spread as printed; for recognition as substrate by PTP1B (in words): compared with Src positive control peptide
T1 construct: PTP1B was expressed and purified as described previously; made in house
T1 sequence (P18031 1-435): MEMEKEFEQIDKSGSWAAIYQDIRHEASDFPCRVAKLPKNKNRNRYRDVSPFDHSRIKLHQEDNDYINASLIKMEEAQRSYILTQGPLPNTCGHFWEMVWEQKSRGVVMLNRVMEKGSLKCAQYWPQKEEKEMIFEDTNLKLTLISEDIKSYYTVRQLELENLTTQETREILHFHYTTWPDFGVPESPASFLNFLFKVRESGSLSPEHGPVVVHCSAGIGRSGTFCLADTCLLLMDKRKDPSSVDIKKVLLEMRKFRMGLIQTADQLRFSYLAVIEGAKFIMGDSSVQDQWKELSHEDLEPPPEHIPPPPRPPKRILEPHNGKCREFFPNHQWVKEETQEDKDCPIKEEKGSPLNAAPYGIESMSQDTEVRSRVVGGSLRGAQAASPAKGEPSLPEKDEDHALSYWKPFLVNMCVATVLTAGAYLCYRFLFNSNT
Experimental: (§1) To test if the predicted phosphopeptides would indeed be in vitro substrates of PTP1B, we synthesized six of these peptides. The two peptides from JAK1 were not synthesized and tested because the sequences are highly similar to the ones of the known substrates JAK2[20] and MET[21] that were also detected by our procedure. […] (Table 1).
PTP1B was expressed and purified as described previously.[3]
The in vitro EnzChek phosphate assay was carried out with the commercial kit from Molecular Probes as described previously.[23]

[2] = Solubility of synthesized peptide (observation); type: physicochemical; details: qualitative; peptide therefore not tested in the enzymatic assay
Text: as §1

PTP1B [3] = molecular target: T1, PTP1B; details: JAK2-derived phosphopeptide as PTP1B substrate; cited from earlier work
Text: as §1, with “With the ex ...” for “(Table 1).”

Substance	kcat/Km (PTP1B [1])	Km (PTP1B [1]; read-out: Km) [µM]	other results
DNEDVpYTFKTP [Peptide 3, Predicted PTP1B phosphopeptide substrate from GAB2, pY site 293]	9.2 ± 1.6 ×10^−5 M^−1 s^−1	17.1 ± 4.1	–
DPSDNpYAEPID [Peptide 1, Predicted PTP1B phosphopeptide substrate from ARHGAP5, pY site 1090]	11.6 ± 3.4 ×10^−5 M^−1 s^−1	28.5 ± 5	–
EEEDIpYEVLPD [Peptide 2, Predicted PTP1B phosphopeptide substrate from SKAP1, pY site 271]	27.9 ± 13.9 ×10^−5 M^−1 s^−1	14.7 ± 3.2	–
IEDNEYTARQG [Fyn peptide, synthesized predicted phosphopeptide from Fyn]	–	–	solubility [2]: poor solubility
IEDPpYpYGNDSD [Peptide 4, Predicted PTP1B phosphopeptide substrate from ACP1, pY site 133]	8.9 ± 1.1 ×10^−5 M^−1 s^−1	20.1 ± 4.6	–
KEpYpYKVK	–	–	Km (PTP1B [3]): 12.7 µM; kcat/Km (PTP1B [3]): 0.000232 M⁻¹ s⁻¹
KKKKpYPKK [Peptide 7, reference compound]	Inactive	–	recognition as substrate by PTP1B (in words) (PTP1B [1]): not recognized; Km (PTP1B [1]): Inactive
LGSRApYPHFCA [Peptide 8]	–	> 300	recognition as substrate by PTP1B (in words) (PTP1B [1]): recognized it poorly
QENPIpYKSPIN [Peptide 5, Predicted PTP1B phosphopeptide substrate from ITGB1, pY site 783]	7.1 ± 3.0 ×10^−5 M^−1 s^−1	21.7 ± 8.9	–
STEPQpYQPGEN [Peptide 6, positive control peptide from Src as known substrate of PTP1B, reference compound]	9.0 ± 3.7 ×10^−5 M^−1 s^−1	29.1 ± 5.3	–
